Values belong to the compound of their own block, whether it stands above or below them.
Legend:
[1] = Plasma pharmacokinetics of triclabendazole (with sulphone and sulphoxide metabolites) in cattle; assay type: in vivo
Description: (§1) Formulations according to the invention were tested for their efficacy in delivering benzimidazoles and macrocyclic lactones to the bloodstream of mammals (cattle), and compared to the efficacy in delivering these agents to animals' bloodstreams by standard commercially available drench (Fasinex 120®), and an experimental solvent-based triclabendazole/ivermectin pour-on formulation.
Cattle (typically Hereford or Hereford cross) with either natural or artificially infected burdens of fluke and nematodes were used in pen and field trials. […] Experimental treatments were applied along the backline using a commercially available backliner gun fitted with a plastic shroud to ensure correct delivery of the formulation according to the protocol.
(§2) Blood samples (plasma) were taken by venipuncture of the jugular vein at the designated time intervals. Analysis for triclabendazole and ivermectin residues in the plasma was carried out and reported by commercial contract laboratories.
The triclabendazole was extracted from the plasma using ethyl acetate. Following concentration and SPE clean up, the triclabendazole and its sulphone and sulphoxide metabolites were analysed by reverse phase HPLC using UV detection.

[2] = Plasma pharmacokinetics of ivermectin in cattle; assay type: in vivo
Description: as §1
Cattle (typically Hereford or Hereford cross) with either natural or artificially infected burdens of fluke and nematodes were used in pen and field trials. Within a given trial animals were allotted into treatment groups, each having similar mean weights and fluke and nematode burdens. Experimental treatments were applied along the backline using a commercially available backliner gun fitted with a plastic shroud to ensure correct delivery of the formulation according to the protocol.
as §2
Ivermectin was extracted from the plasma using acetonitrile and concentrated by evaporation. The sample was cleaned up by solid phase extraction (SPE) chromatography and the ivermectin determined as the N-methyl imidazole derivative using reverse phase HPLC with fluorescence detection.

[3] = Table 2 pour-on 90 g/L triclabendazole + 10.0 g/L ivermectin, 1 mL/10 kg, 1.0 mg/kg
[4] = Table 2 pour-on 120 g/L triclabendazole + 5.0 g/L ivermectin, 1 mL/10 kg, 0.5 mg/kg
[5] = Table 2 pour-on 180 g/L triclabendazole + 7.5 g/L ivermectin, 1 mL/10 kg, 0.75 mg/kg
[6] = Table 3 pour-on 240 g/L triclabendazole + 3.33 g/L ivermectin (triethanolamine), 1 ml/6.67 kg, 0.5 mg/kg
[7] = Table 3 pour-on 240 g/L triclabendazole + 5 g/L ivermectin (sodium dodecyl sulphate), 1 ml/10 kg, 0.5 mg/kg
[8] = Table 3 pour-on 240 g/L triclabendazole + 10 g/L ivermectin (triethanolamine), 1 ml/20 kg, 0.5 mg/kg
[9] = Table 4 pour-on 180 g/L triclabendazole + 7.5 g/L ivermectin, 1 mL/15 kg, mean treatment area 110 cm^2, 0.5 mg/kg
[10] = Table 4 pour-on 240 g/L triclabendazole + 10.0 g/L ivermectin, 1 mL/20 kg, mean treatment area 76 cm^2, 0.5 mg/kg

Triclabendazole AUC ([1]; Table 2 pour-on 90 g/L triclabendazole + 10.0 g/L ivermectin, 1 mL/10 kg, 9.0 mg/kg): 72 µg·days/mL | Triclabendazole AUC ([1]; Table 2 pour-on 120 g/L triclabendazole + 5.0 g/L ivermectin, 1 mL/10 kg, 12 mg/kg): 85 µg·days/mL | Triclabendazole AUC ([1]; Table 2 pour-on 180 g/L triclabendazole + 7.5 g/L ivermectin, 1 mL/10 kg, 18 mg/kg): 139 µg·days/mL | Triclabendazole AUC ([1]; Table 3 pour-on 240 g/L triclabendazole + 3.33 g/L ivermectin (triethanolamine), 1 ml/6.67 kg, 36 mg/kg): 177 µg·days/mL | Triclabendazole AUC ([1]; Table 3 pour-on 240 g/L triclabendazole + 5 g/L ivermectin (sodium dodecyl sulphate), 1 ml/10 kg, 24 mg/kg): 129 µg·days/mL | Triclabendazole AUC ([1]; Table 3 pour-on 240 g/L triclabendazole + 10 g/L ivermectin (triethanolamine), 1 ml/20 kg, 12 mg/kg): 73 µg·days/mL | Triclabendazole AUC ([1]; Table 4 pour-on 180 g/L triclabendazole + 7.5 g/L ivermectin, 1 mL/15 kg, mean treatment area 110 cm^2, 12.0 mg/kg): 65 µg·days/mL | Triclabendazole AUC ([1]; Table 4 pour-on 240 g/L triclabendazole + 10.0 g/L ivermectin, 1 mL/20 kg, mean treatment area 76 cm^2, 12.0 mg/kg): 170 µg·days/mL
Compound: CSc1nc2cc(Cl)c(Oc3cccc(Cl)c3Cl)cc2[nH]1 [Triclabendazole, 5-chloro-6-(2,3-dichlorophenoxy)-2-(methylthio)-benzimidazole]

Compound: 22,23-dihydroavermectin B1 [Ivermectin]
Ivermectin AUC [2, 3]: 88 ng·days/mL | Ivermectin Mean plasma [2, 3]: 4.4 ng/mL | Ivermectin Plasma Cmax [2, 3]: 8 ng/mL | Ivermectin Tmax [2, 3]: 120 h | Ivermectin AUC [2, 4]: 52 ng·days/mL | Ivermectin Mean plasma [2, 4]: 2.5 ng/mL | Ivermectin Plasma Cmax [2, 4]: 8 ng/mL | Ivermectin Tmax [2, 4]: 120 h | Ivermectin AUC [2, 5]: 79 ng·days/mL | Ivermectin Mean plasma [2, 5]: 4.1 ng/mL | Ivermectin Plasma Cmax [2, 5]: 13 ng/mL | Ivermectin Tmax [2, 5]: 120 h | Ivermectin AUC [2, 6]: 82 ng·days/mL | Ivermectin Plasma Cmax [2, 6]: 7.5 ng/mL | Ivermectin Tmax [2, 6]: 170 h | Ivermectin AUC [2, 7]: 84 ng·days/mL | Ivermectin Plasma Cmax [2, 7]: 9.5 ng/mL | Ivermectin Tmax [2, 7]: 120 h | Ivermectin AUC [2, 8]: 104 ng·days/mL | Ivermectin Plasma Cmax [2, 8]: 10.4 ng/mL | Ivermectin Tmax [2, 8]: 170 h | Ivermectin AUC [2, 9]: 30 ng·days/mL | Ivermectin Mean plasma conc^n [2, 9]: 1.7 ng/mL | Ivermectin AUC [2, 10]: 43 ng·days/mL | Ivermectin Mean plasma conc^n [2, 10]: 2.2 ng/mL

Reference: patent US20060121072A1, “Topical parasiticide formulations and methods of treatment” (priority 2002, published 2006)
